Here are results for 11 compounds from patent US11123330B2, “Methods and compositions for inhibiting mutant EGFR signaling” (The Governing Council of the University of Toronto, priority 2017, dated 2021).

The subject of series [1] is reporter cells expressing FGFR4 bait. Put plainly: Viability of reporter cells expressing FGFR4 bait. Format: cell-based. The method, then: (§1) Cell viability assays. MaMTH stable bait cells or Ba/F3 cells were seeded into 96 well plates at 10,000 cells per well. For MaMTH stable cells, the cells were treated the next day with each inhibitor in a dose-dependent manner in addition to 0.5 ug/mL tetracyline to induce bait expression. For BaF3 cells, the cells were treated with each compound the same day as seeding. After 72 hours of drug treatment, cell viability was measured using the CellTiter-Glo assay (Promega).

Series [2] relates to reporter cells expressing ALK bait. The series can be described thus: Viability of reporter cells expressing ALK bait. It counts as cell-based.
Series [3] has as its target T1, EGFR-WT (Homo sapiens, UniProt P00533).
T1 construct: change the phosphorylation status of full-length EGFR proteins in the context of living cells; expressed in transfected cells
The series can be described thus: MaMTH assay, EGFR-WT bait with Shc1 prey. Particulars: for WT > 50% Inhibition / Average Percent: EGFR-WT bait, Shc1 prey; for Average Percent: retest in triplicate, MaMTH signal remaining (low = inhibition). Format: cell-based.

The target of series [4] is T2, EGFR-L858R-T790M-C797S (Homo sapiens, UniProt P00533, C797S/L858R/T790M).
T2 construct: change the phosphorylation status of full-length EGFR proteins in the context of living cells; expressed in transfected cells
Put plainly: MaMTH / MaMTH-DS assay, EGFR-L858R-T790M-C797S bait with Shc1 prey. Format: cell-based. Conditions: retest in triplicate, MaMTH signal remaining (low = inhibition).

In series [5] the test system is reporter cells expressing MET bait. The series can be described thus: Viability of reporter cells expressing MET bait. It counts as cell-based.
For series [6], the target named is T3, MET (Homo sapiens, UniProt P08581).
T3 construct: expressed in transfected cells
T3 sequence (P08581 308-1390 limits assumed): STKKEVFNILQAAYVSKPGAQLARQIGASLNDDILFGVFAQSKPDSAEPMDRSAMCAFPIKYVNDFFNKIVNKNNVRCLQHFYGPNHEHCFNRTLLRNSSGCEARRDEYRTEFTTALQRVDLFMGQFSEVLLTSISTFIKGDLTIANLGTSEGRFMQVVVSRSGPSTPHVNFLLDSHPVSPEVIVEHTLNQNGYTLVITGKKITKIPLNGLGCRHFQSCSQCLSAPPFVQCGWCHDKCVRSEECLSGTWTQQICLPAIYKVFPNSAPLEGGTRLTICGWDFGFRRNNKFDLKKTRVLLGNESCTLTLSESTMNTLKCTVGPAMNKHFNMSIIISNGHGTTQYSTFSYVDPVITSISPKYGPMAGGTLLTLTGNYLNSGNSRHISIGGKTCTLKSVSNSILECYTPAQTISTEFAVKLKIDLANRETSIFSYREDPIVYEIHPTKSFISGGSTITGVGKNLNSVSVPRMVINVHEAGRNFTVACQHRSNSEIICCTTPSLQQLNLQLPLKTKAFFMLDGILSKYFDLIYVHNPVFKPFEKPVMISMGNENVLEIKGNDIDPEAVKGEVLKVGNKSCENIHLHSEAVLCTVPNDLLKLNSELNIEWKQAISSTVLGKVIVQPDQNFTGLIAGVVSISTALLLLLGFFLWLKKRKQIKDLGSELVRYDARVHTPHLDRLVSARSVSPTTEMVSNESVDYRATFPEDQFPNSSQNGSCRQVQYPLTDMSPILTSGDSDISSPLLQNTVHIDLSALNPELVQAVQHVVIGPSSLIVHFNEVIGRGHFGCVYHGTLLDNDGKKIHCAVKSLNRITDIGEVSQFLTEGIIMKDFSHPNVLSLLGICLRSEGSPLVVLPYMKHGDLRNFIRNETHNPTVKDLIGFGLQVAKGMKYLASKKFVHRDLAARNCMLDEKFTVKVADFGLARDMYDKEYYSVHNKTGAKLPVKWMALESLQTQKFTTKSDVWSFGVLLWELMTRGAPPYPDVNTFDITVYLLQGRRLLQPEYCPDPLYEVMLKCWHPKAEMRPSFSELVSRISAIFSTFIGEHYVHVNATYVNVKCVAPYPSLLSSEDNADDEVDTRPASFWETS
T3 sequence (P08581 25-307 partner limits assumed): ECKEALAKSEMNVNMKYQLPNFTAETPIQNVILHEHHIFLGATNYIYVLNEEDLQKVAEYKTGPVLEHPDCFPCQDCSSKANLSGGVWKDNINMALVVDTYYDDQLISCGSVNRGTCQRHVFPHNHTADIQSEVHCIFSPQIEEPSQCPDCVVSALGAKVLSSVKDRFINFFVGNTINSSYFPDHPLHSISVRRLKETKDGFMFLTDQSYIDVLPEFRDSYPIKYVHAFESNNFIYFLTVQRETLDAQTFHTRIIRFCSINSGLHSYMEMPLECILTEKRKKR
Put plainly: MaMTH-DS assay, MET bait with Shc1 prey. Format: cell-based.

The target of series [7] is T4, FGFR4 (Homo sapiens, UniProt P22455).
T4 construct: expressed in transfected cells
T4 sequence (P22455 22-802): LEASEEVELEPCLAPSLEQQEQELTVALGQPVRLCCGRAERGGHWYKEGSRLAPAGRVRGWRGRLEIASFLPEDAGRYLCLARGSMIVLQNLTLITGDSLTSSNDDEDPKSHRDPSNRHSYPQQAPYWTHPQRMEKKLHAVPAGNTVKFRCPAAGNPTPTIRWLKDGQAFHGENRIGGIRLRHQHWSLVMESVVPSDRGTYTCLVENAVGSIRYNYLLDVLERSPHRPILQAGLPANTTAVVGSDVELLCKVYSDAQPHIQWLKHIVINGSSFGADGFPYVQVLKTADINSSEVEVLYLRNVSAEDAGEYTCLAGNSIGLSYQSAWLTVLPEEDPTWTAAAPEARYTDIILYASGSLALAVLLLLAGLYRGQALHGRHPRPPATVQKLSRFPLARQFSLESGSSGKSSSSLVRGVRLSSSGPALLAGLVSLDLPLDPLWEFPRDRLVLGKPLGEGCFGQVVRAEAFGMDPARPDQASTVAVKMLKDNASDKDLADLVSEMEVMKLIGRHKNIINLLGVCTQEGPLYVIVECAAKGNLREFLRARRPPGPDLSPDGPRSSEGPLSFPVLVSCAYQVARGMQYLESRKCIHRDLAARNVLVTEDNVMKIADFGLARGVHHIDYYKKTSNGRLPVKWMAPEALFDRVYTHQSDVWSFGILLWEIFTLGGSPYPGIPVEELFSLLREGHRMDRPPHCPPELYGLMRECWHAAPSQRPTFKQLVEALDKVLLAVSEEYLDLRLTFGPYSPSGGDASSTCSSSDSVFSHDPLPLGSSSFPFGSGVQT
The series can be described thus: MaMTH-DS assay, FGFR4 bait with Shc1 prey. It counts as cell-based.

The target in series [8] is T5, AXL (Homo sapiens, UniProt P30530).
T5 construct: expressed in transfected cells
T5 sequence (P30530 26-894): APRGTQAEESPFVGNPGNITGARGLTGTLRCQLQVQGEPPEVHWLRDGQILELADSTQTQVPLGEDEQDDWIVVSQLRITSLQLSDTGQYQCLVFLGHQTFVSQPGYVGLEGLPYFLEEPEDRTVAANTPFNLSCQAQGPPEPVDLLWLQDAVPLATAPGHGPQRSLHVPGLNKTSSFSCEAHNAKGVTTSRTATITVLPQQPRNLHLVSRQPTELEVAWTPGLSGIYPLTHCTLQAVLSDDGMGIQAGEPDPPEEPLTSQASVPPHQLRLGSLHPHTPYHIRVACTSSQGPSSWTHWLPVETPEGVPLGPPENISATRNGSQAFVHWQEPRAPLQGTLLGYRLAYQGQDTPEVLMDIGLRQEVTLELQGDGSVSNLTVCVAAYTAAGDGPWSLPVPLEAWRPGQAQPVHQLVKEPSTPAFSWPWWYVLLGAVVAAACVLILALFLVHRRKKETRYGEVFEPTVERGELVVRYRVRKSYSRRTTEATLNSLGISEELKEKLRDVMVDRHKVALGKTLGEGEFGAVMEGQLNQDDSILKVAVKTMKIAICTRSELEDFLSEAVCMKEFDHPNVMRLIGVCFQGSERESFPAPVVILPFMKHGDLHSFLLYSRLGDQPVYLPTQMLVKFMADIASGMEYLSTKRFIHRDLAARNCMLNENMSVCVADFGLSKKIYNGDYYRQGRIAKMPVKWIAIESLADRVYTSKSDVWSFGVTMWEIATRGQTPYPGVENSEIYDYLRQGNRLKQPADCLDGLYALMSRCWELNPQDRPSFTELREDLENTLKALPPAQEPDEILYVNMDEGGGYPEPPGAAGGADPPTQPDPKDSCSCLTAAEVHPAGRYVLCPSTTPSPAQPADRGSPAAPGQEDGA
Put plainly: MaMTH-DS assay, AXL bait with Shc1 prey. It counts as cell-based. An excerpt:
To test MaMTH-DS sensitivity and its potential suitability for use in RTK drug screening, we selected several RTKs whose dysfunction is associated with cancer, and prepared stable MaMTH-DS ‘baits’ in our reporter cell lines. We then performed MaMTH-DS assays in the presence of transfected Shcl functional adapter protein ‘prey’ and small-molecule TKIs, including both control molecules and compounds known to specifically target the function of the corresponding RTKs. First, we examined the response of the RTK MET to the TKIs Crizotinib and Erlotinib using MaMTH-DS.
MaMTH assays. Cells stably expressing bait of interest (EGFR, MET, FGFR4, ALK, AXL) were seeded into 96-well TC-treated plates and grown at 37° C./5% CO2 overnight in DMEM/10% FBS/1% PS to ˜50-60% confluency. Cells were transfected with 50 ng/well of Nub-Shc1 ‘prey’ protein by calcium phosphate precipitation. Five hours after transfection, media was aspirated out and cells were treated with 100 uL of fresh media containing specific compound and 0.5 ug/ml of tetracyline to induce bait expression. After 24 hours, luciferase activity was measured by chemoluminescence.

The subject of series [9] is reporter cells expressing AXL bait. Put plainly: Viability of reporter cells expressing AXL bait. It counts as cell-based. The method, then:
as §1

Series [10] concerns the target T6, EGFR L858R/T790M (Homo sapiens, UniProt P00533, L858R/T790M).
T6 construct: change the phosphorylation status of full-length EGFR proteins in the context of living cells; expressed in transfected cells
The series can be described thus: MaMTH assay, EGFR L858R/T790M bait with Shc1 prey. Format: cell-based.

The target in series [11] is EGFR ex19del/T790M/C797S (Homo sapiens, UniProt P00533, C797S/DEL746-750/T790M). Put plainly: In vitro kinase assay, EGFR ex19del/T790M/C797S kinase domain. Format: biochemical.
The test system of series [12] is EGFR ex19del-T790M. The series can be described thus: In vitro kinase assay, EGFR ex19del-T790M. It counts as biochemical.
Series [13] relates to EGFR and downstream signaling molecules in PC9 EGFR-ex19del-T790M-C797S cells. Put plainly: EGFR activation and downstream signaling in PC9 EGFR-ex19del-T790M-C797S cells. Format: cell-based.
Series [14] has as its system PC9 EGFR ex19del/T790M/C797S organoids. Put plainly: Organoid viability, PC9 EGFR ex19del/T790M/C797S organoids. Conditions: 72 hours with compound. Format: cell-based.
The subject of series [15] is PC9 EGFR ex19del/T790M/C797S cells. Put plainly: Cell viability, PC9 EGFR ex19del/T790M/C797S cells. Format: cell-based. Particulars: for cell viability in combination with compound 5213777: with 50 nM of compound 5213777, 72 hours, compared to alone; for cell viability in combination with Panitumumab: with 10 ug/ml Panitumumab, 72 hours.
The target of series [16] is T7, wild-type EGFR (Homo sapiens, UniProt P00533).
T7 construct: recombinant proteins of the kinase domain of wild-type EGFR; purchased Reaction Biology Corporation
The series can be described thus: In vitro kinase assay, EGFR WT kinase domain. Format: biochemical. Particulars: up to 10 micromolar.

For series [17], the system named is EGFR double mutants. The series can be described thus: In vitro kinase assay, EGFR double mutants. Format: biochemical.
Series [18] has as its system Ba/F3 cells expressing EGFR-L858R-T790M-C797S. Put plainly: Ba/F3 cell viability (CellTiter-Glo), EGFR-L858R-T790M-C797S. It counts as cell-based. Conditions: for cell viability in combination with anti-EGFR antibody: with 68 nM Cetuximab or 140 nM Panitumumab. (In ATP-based viability assays light output follows the ATP content of the culture.)
The subject of series [19] is Ba/F3 cells expressing EGFR-ex19del-T790M-C797S. Put plainly: Ba/F3 cell viability (CellTiter-Glo), EGFR-ex19del-T790M-C797S. Particulars: for cell viability in combination with anti-EGFR antibody: with 68 nM Cetuximab or 140 nM Panitumumab. Format: cell-based.
Series [20] deals with EGFR and downstream signalling molecules in Ba/F3 EGFR-L858R-T790M-C797S cells. The series can be described thus: Western analysis of EGFR and downstream signalling, Ba/F3 EGFR-L858R-T790M-C797S. Format: cell-based.
For series [21], the system named is EGFR and downstream signalling molecules in Ba/F3 EGFR-ex19del-T790M-C797S cells. Put plainly: Western analysis of EGFR and downstream signalling, Ba/F3 EGFR-ex19del-T790M-C797S. It counts as cell-based.
Series [22] concerns PC9 EGFR ex19del/T790M/C797S cells. The series can be described thus: Caspase 3 and 7 activity, PC9 EGFR ex19del/T790M/C797S cells. It counts as cell-based.
Series [23] concerns CFBE cells. Put plainly: Caspase 3 and 7 activity, CFBE cells. Format: cell-based.

Regarding `C=CC(=O)Nc1cccc(C)c1Nc1ncc2cc(-c3c(Cl)c(OC)cc(OC)c3Cl)ccc2n1` [BLU9931], the reporter cell viability result in series [1] is “no effect”.
On to `COc1cc(N2CCC(N3CCN(C)CC3)CC2)ccc1Nc1ncc(Cl)c(Nc2ccccc2P(C)(C)=O)n1` [Brigatinib], for which the reporter cell viability result in series [2] is on record as “unaffected”.
As for `C/C(=C\c1ccc(Cl)cc1)[N+](=O)[O-]` [Compound 5238658], in series [3], the “WT > 50% Inhibition” value is reported as “YES” and the “Average Percent” value worked out at 0.9%. In addition, the “Average Percent” value in series [4] was found to be 0.2%.
With `CC1CC(Nc2ccccc2)c2ccccc2N1C(=O)c1cccs1` (stereo not drawn) [Compound 5304079], in [3], the “WT > 50% Inhibition” value is recorded as “YES” and the “Average Percent” value turned out to be 21.5%. Also, the “Average Percent” value in series [4] was found to be 11.7%.
In the same order, the values of `O=c1c(Cl)c(Cl)cnn1Cc1ccccc1` [Compound 5357830] are “YES”, 6.2% and 0.9%.
With `C[C@@H](Oc1cc(-c2cnn(C3CCNCC3)c2)cnc1N)c1c(Cl)ccc(F)c1Cl` [Crizotinib], the reporter cell viability result in series [5] is on record as “not due to a loss in cell viability”.
With `C#Cc1cccc(Nc2ncnc3cc(OCCOC)c(OCCOC)cc23)c1` [Erlotinib], the “MaMTH-DS interaction with Shc1” value in series [6] is “not”. The “MaMTH-DS reporter activity” value in [7] and in series [8] was “not” throughout.
On to `COc1cc2c(Oc3ccc(NC(=O)C4(C(=O)Nc5ccc(F)cc5)CC4)cc3F)ccnc2cc1OCCCN1CCOCC1` [Foretinib], for which, in [8], the “MaMTH-DS reporter activity” value is “strongly reduced, in a dose-dependent manner”. The reporter cell viability result in [9] is “unaffected”.
As to `CCc1nc(C(N)=O)c(Nc2ccc(N3CCC(N4CCN(C)CC4)CC3)c(OC)c2)nc1NC1CCOCC1` [Gilteritinib, 6-ethyl-3-[3-methoxy-4-[4-(4-methylpiperazin-1-yl)piperidin-1-yl]anilino]-5-(oxan-4-ylamino)pyrazine-2-carboxamide], the “interaction / complex formation with Shc1 (MaMTH, words)” value in series [3] (EGFR WT bait) is reported as “not”; in series [10], “inhibited complex formation”. In addition, the results for the “effect on kinase activity” value in [11] and in series [12] were “most robust inhibition” and “preferentially inhibits”, respectively. For the same compound, the “phosphorylation and/or expression of EGFR and downstream signaling molecules” value in series [13] was “inhibits EGFR activation and downstream signaling”. Besides, the “viability of PC9 organoids” value in series [14] is recorded as “dose-dependent reduction”. Besides, the “cell viability in combination with compound 5213777” value in series [15] is “increased effect”. Besides, in series [15], the “cell viability in combination with Panitumumab” value was “significantly enhanced”.
Turning to `CO[C@@H]1[C@H](N(C)C(=O)c2ccccc2)C[C@H]2O[C@]1(C)n1c3ccccc3c3c4c(c5c6ccccc6n2c5c31)C(=O)NC4` [Midostaurin, N-[(9S,10R,11R,13R)-2,3,10,11,12,13-hexahydro-10-methoxy-9-methyl-1-oxo-9,13-epoxy-1H,9H-diindolo[1,2,3-gh:3′,2′,1′-lm]pyrrolo[3,4-j][1,7]benzodiazonin-11-yl]-N-methylbenzamide], the “Average Percent” value came to 129.3% in series [3] and 10.5% in series [4]. The “effect on kinase activity” value in [16] is listed as “no significant effect”; in series [11] it was “strongly inhibited”; in [17] it was “inhibits the kinase activity”. Moreover, the “cell viability” value was “robust, dose-dependent reduction” in series [18] (compound alone, 72 hours) and “robust, dose-dependent reduction” in series [19] (compound alone, 72 hours). Further, the “cell viability in combination with anti-EGFR antibody” value in series [18] and in series [19] was “Enhanced effect” throughout. Also, the “phosphorylation and/or expression of EGFR and downstream signalling molecules” value in series [20] and in [21] was “strongest response” in each case. Also, the “phosphorylation and/or expression of EGFR and downstream signaling molecules” value in [13] is on record as “inhibitory effect”. Besides, the “caspase 3 and 7 activity” value in [22] is on record as “dose-dependent activation”; in series [23], “not observed”. Moreover, in series [14], the “viability of PC9 organoids” value is on record as “dose-dependent reduction”. For the same compound, the “cell viability in combination with compound 5213777” value in series [15] is “increased effect”. Further, in series [15], the “cell viability in combination with Panitumumab” value was “Enhanced effects”.
For `C=CC(=O)Nc1cc(Nc2nccc(-c3cn(C)c4ccccc34)n2)c(OC)cc1N(C)CCN(C)C` [Osimertinib], the “cell viability in combination with anti-EGFR antibody” value in series [18] was “does not cause enhanced reduction”; in series [18] (listed as AZD9291) it was “no such enhancement was evident”; in [19], “does not cause enhanced reduction”; in [19] (listed as AZD9291), “no such enhancement was evident”. The “caspase 3 and 7 activity” value in series [22] is recorded as “not observed”. In addition, the “viability of PC9 organoids” value in [14] was “not observed”.
